For 68 compounds, IC50 results are on record in patent US7345180B2, “Compound inhibiting dipeptidyl peptidase IV” (Sanwa Kagaku Kenkyusho Co., Ltd., priority 2003, dated 2008).

SMILES strings stand for the structures.

This experiment concerns the target T1, DPP-IV (Homo sapiens, UniProt P27487).
T1 construct: from tissue; host or cells: human plasma (diluted 30-fold)
The experiment is described as follows: DPP-IV inhibition, Gly-Pro-MCA substrate, human plasma as enzyme source (Pharmacological Test Example 1). In kind it is biochemical. The conditions noted are these: 30 minutes at room temperature. As for the experimental part:
In screening of DPP-IV inhibitor, the following method using glycyl-proline-4-methylcumalyl-7-amide (Gly-Pro-MCA) as substrate was used.
There after, human plasma (20 μl) diluted30-fold with the measurement buffer was added to each well, stirred and reacted at room temperature for 30 minutes in the dark.
Inhibitory activity on DPP-IV=100×(1−(Fs−Fb)/F100−Fb) F100:fluorescence intensity obtained by reaction with plasma. Fb:fluorescence intensity of a blank where the reaction was carried out with the reaction terminating solution added. Fs:fluorescence intensity obtained by adding the test substance.

T1 sequence (P27487 39-766 limits assumed): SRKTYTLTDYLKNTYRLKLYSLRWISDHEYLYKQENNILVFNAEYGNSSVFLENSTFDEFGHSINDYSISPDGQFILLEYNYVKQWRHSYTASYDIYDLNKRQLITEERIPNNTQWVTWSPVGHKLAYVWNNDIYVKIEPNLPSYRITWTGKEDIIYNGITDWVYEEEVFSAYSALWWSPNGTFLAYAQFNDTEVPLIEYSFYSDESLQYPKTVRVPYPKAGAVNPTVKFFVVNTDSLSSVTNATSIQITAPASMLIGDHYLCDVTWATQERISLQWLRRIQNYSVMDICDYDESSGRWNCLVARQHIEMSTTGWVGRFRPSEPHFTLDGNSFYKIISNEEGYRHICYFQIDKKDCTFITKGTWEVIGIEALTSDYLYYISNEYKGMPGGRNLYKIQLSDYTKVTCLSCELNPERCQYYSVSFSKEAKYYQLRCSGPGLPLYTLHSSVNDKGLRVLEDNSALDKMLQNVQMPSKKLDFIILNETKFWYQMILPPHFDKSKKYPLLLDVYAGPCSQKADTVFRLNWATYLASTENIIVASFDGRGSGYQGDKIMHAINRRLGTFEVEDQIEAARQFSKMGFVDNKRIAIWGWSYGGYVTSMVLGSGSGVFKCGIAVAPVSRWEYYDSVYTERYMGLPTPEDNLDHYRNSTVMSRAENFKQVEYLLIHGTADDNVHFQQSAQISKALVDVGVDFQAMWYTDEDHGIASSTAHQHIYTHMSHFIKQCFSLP

For orientation: IC50 means the midpoint of a concentration-inhibition curve. For `Cc1nn(C)c2ncc(C(=O)NCCNCC(=O)N3CCC[C@H]3C#N)cc12` [Compound 122], the half-maximal inhibitory concentration (IC50) worked out at 0.026 µM.

Take `N#C[C@@H]1CCCN1C(=O)CNCCNC(=O)c1cnc2n(c1=O)CCS2` [Compound 126]: it took 0.031 µM to reach half-maximal inhibition (IC50).

On to `COc1c(C(=O)NCC(C)(C)NCC(=O)N2CCC[C@H]2C#N)c(C)nc2cc(C)nn12` [Example 4], for which the IC50 was 0.087 µM.

Turning to `COc1c(C(=O)NCC(C)(C)NCC(=O)N2CCC[C@H]2C#N)c(C)nc2cc(-c3ccccc3)nn12` [Example 10], the half-inhibitory concentration (IC50) stood at 0.085 µM.

For `Cc1cc2nc(O)c(C(=O)NCC(C)(C)NCC(=O)N3CCC[C@H]3C#N)cn2n1` [Example 11], the half-maximal inhibitory concentration (IC50) turned out to be 0.068 µM.

Regarding `CC(C)(CNC(=O)c1cnc2cc(CO)nn2c1)NCC(=O)N1CCC[C@H]1C#N` [Example 13], the midpoint of inhibition, the IC50, lay at 0.024 µM.

Turning to `CC(C)(CNC(=O)c1c[nH]c2ccccc12)NCC(=O)N1CCC[C@H]1C#N` [Example 15], the half-maximal inhibitory concentration (IC50) is 0.028 µM.

The compound `CC(C)(CNC(=O)c1ccc2[nH]ccc2c1)NCC(=O)N1CCC[C@H]1C#N` [Example 16] yielded an IC50 of 0.033 µM.

For `Cn1cc(C(=O)NCC(C)(C)NCC(=O)N2CCC[C@H]2C#N)c2ccccc21` [Example 18], the IC50 worked out at 0.036 µM.

`Cn1ccc2c(C(=O)NCC(C)(C)NCC(=O)N3CCC[C@H]3C#N)cccc21` [Example 19] yielded an IC50 of 0.05 µM.

The compound `Cn1ccc2cc(C(=O)NCC(C)(C)NCC(=O)N3CCC[C@H]3C#N)ccc21` [Example 20] yielded an IC50 of 0.052 µM.

The compound `Cn1ccc2ccc(C(=O)NCC(C)(C)NCC(=O)N3CCC[C@H]3C#N)cc21` [Example 21] yielded an IC50 of 0.028 µM.

In turn, `Cn1ccc2cccc(C(=O)NCC(C)(C)NCC(=O)N3CCC[C@H]3C#N)c21` [Example 22] yielded an IC50 of 0.073 µM.

`COc1cccc2c1cc(C(=O)NCC(C)(C)NCC(=O)N1CCC[C@H]1C#N)n2C` [Example 23] registered an IC50 of 0.082 µM.

In turn, `COc1ccc2cc(C(=O)NCC(C)(C)NCC(=O)N3CCC[C@H]3C#N)n(C)c2c1` [Example 24] registered an IC50 of 0.043 µM.

`COc1cc(OC)c2cc(C(=O)NCC(C)(C)NCC(=O)N3CCC[C@H]3C#N)n(C)c2c1` [Example 25] displayed an IC50 of 0.048 µM.

`COc1ccc2c(c1)c(C(=O)NCC(C)(C)NCC(=O)N1CCC[C@H]1C#N)c(C)n2C` [Example 26] returned an IC50 of 0.033 µM.

Compound `COc1ccc2c(c1)c(C(=O)NCC(C)(C)NCC(=O)N1CCC[C@H]1C#N)cn2C` [Example 27] showed an IC50 of 0.021 µM.

`COc1cc(C(=O)NCC(C)(C)NCC(=O)N2CCC[C@H]2C#N)cc2ccn(C)c12` [Example 28] yielded an IC50 of 0.078 µM.

As to `CC(C)Cn1cc(C(=O)NCC(C)(C)NCC(=O)N2CCC[C@H]2C#N)c2ccccc21` [Example 30], the half-inhibitory concentration (IC50) was 0.089 µM.

In turn, `CC(C)(C)Cn1ccc2cc(C(=O)NCC(C)(C)NCC(=O)N3CCC[C@H]3C#N)ccc21` [Example 31] yielded an IC50 of 0.049 µM.

For `CC(C)Cn1ccc2cc(C(=O)NCC(C)(C)NCC(=O)N3CCC[C@H]3C#N)ccc21` [Example 32], the IC50 came to 0.048 µM.

Compound `CC(C)(CNC(=O)c1cn(COCc2ccccc2)c2ccccc12)NCC(=O)N1CCC[C@H]1C#N` [Example 33] returned an IC50 of 0.071 µM.

Take `COCn1cc(C(=O)NCC(C)(C)NCC(=O)N2CCC[C@H]2C#N)c2ccccc21` [Example 34]: half-maximal inhibition (IC50) was put at 0.023 µM.

Regarding `CC(=O)OCn1cc(C(=O)NCC(C)(C)NCC(=O)N2CCC[C@H]2C#N)c2ccccc21` [Example 35], the IC50 was 0.037 µM.

Take `CC(C)(CNC(=O)c1ccc2c(ccn2COCc2ccccc2)c1)NCC(=O)N1CCC[C@H]1C#N` [Example 36]: the midpoint of inhibition, the IC50, lay at 0.045 µM.

Turning to `CC(C)(CNC(=O)c1ccc2c(ccn2CO)c1)NCC(=O)N1CCC[C@H]1C#N` [Example 37], the IC50 was 0.017 µM.

Compound `COCn1ccc2cc(C(=O)NCC(C)(C)NCC(=O)N3CCC[C@H]3C#N)ccc21` [Example 38] registered an IC50 of 0.025 µM.

In the case of `COc1ccc2c(c1)c(C(=O)NCC(C)(C)NCC(=O)N1CCC[C@H]1C#N)cn2CC(C)(C)C` [Example 39], inhibition was half-maximal at 0.073 µM (IC50).

For `CC(C)(C)Cn1cc(C(=O)NCC(C)(C)NCC(=O)N2CCC[C@H]2C#N)c2cc(O)ccc21` [Example 41], the IC50 turned out to be 0.025 µM.

In turn, `CC(C)(CNC(=O)c1cn(COC(=O)C(C)(C)C)c2ccccc12)NCC(=O)N1CCC[C@H]1C#N` [Example 42] returned an IC50 of 0.027 µM.

On to `CC(C)(CNC(=O)c1ccc2c(ccn2CC(=O)OC(C)(C)C)c1)NCC(=O)N1CCC[C@H]1C#N` [Example 43], for which the IC50 is 0.016 µM.

For the compound `CN1CCc2cc(C(=O)NCC(C)(C)NCC(=O)N3CCC[C@H]3C#N)ccc21` [Example 44], the IC50 worked out at 0.037 µM.

For `CC(=O)n1cc(C(=O)NCC(C)(C)NCC(=O)N2CCC[C@H]2C#N)c2ccccc21` [Example 45], the IC50 is 0.028 µM.

Consider `CC(=O)N1CCc2cc(C(=O)NCC(C)(C)NCC(=O)N3CCC[C@H]3C#N)ccc21` [Example 46], for which half-maximal inhibition (IC50) was put at 0.019 µM.

`CC(=O)n1ccc2cc(C(=O)NCC(C)(C)NCC(=O)N3CCC[C@H]3C#N)ccc21` [Example 47]: it took 0.024 µM to reach half-maximal inhibition (IC50).

`CC(C)(CNC(=O)c1ccc2c(ccn2C(=O)c2ccccc2)c1)NCC(=O)N1CCC[C@H]1C#N` [Example 48] showed an IC50 of 0.031 µM.

Compound `CC(C)(CNC(=O)c1ccc2c(ccn2C(=O)C(C)(C)C)c1)NCC(=O)N1CCC[C@H]1C#N` [Example 49] registered a half-maximal inhibitory concentration (IC50) of 0.02 µM.

The compound `CC(C)(CNC(=O)c1ccc2c(c1)CCN2C(=O)C(F)(F)F)NCC(=O)N1CCC[C@H]1C#N` [Example 50] registered a 50% inhibitory concentration (IC50) of 0.02 µM.

On to `CC(C)(CNC(=O)c1ccc2ncsc2c1)NCC(=O)N1CCC[C@H]1C#N` [Example 51], for which half-maximal inhibition (IC50) required 0.026 µM.

`COc1cc(C(=O)NCC(C)(C)NCC(=O)N2CCC[C@H]2C#N)cc2sc(C(F)(F)F)nc12` [Example 53] came in with an IC50 of 0.048 µM.

`CC(C)(CNC(=O)c1ccc2[nH]c(=O)sc2c1)NCC(=O)N1CCC[C@H]1C#N` [Example 55] came in with an IC50 of 0.024 µM.

Regarding `Cn1cnc2cc(C(=O)NCC(C)(C)NCC(=O)N3CCC[C@H]3C#N)ccc21` [Example 56], the IC50 came to 0.03 µM.

`Cc1nc2ccc(C(=O)NCC(C)(C)NCC(=O)N3CCC[C@H]3C#N)cc2o1` [Example 57]: the IC50 is 0.035 µM.

Turning to `CC(C)(CNC(=O)C1Cc2ccccc2C1)NCC(=O)N1CCC[C@H]1C#N` [Example 59], the IC50 came out at 0.05 µM.

Compound `CC(C)(CC(=O)N1Cc2ccc(F)cc2C1)NCC(=O)N1CCC[C@H]1C#N` [Example 63] registered an IC50 of 0.018 µM.

On to `CC(C)(CC(=O)N1Cc2ccc(Br)cc2C1)NCC(=O)N1CCC[C@H]1C#N` [Example 64], for which the IC50 was found to be 0.024 µM.

Take `CC(C)(CC(=O)N1Cc2ccc(Cl)cc2C1)NCC(=O)N1CCC[C@H]1C#N` [Example 65]: the 50% inhibitory concentration (IC50) came out at 0.011 µM.

`CC(C)(CC(=O)N1Cc2ccc(C(C)(C)C)cc2C1)NCC(=O)N1CCC[C@H]1C#N` [Example 66] displayed an IC50 of 0.05 µM.

As for `CC(C)(CC(=O)N1Cc2cccc(F)c2C1)NCC(=O)N1CCC[C@H]1C#N` [Example 67], half-maximal inhibition (IC50) was put at 0.007 µM.

Compound `Cc1cccc2c1CN(C(=O)CC(C)(C)NCC(=O)N1CCC[C@H]1C#N)C2` [Example 68] yielded an IC50 of 0.016 µM.

`CC(C)(CC(=O)N1Cc2c(Cl)ccc(Cl)c2C1)NCC(=O)N1CCC[C@H]1C#N` [Example 69] yielded an IC50 of 0.021 µM.

Compound `CC(C)(CC(=O)N1Cc2cccc(O)c2C1)NCC(=O)N1CCC[C@H]1C#N` [Example 70] displayed an IC50 of 0.032 µM.

For `CC(C)(CC(=O)N1Cc2ccc(CO)cc2C1)NCC(=O)N1CCC[C@H]1C#N` [Example 71], the IC50 stood at 0.002 µM.

In turn, `CC(C)(CC(=O)N1Cc2ccc(C(F)(F)F)cc2C1)NCC(=O)N1CCC[C@H]1C#N` [Example 72] displayed a half-inhibitory concentration (IC50) of 0.039 µM.

Compound `CC(C)(CC(=O)N1Cc2c(Cl)c(Cl)c(Cl)c(Cl)c2C1)NCC(=O)N1CCC[C@H]1C#N` [Example 73] came in with an IC50 of 0.094 µM.

The compound `CC(C)(CC(=O)N1Cc2cc(Cl)c(Cl)cc2C1)NCC(=O)N1CCC[C@H]1C#N` [Example 74] yielded an IC50 of 0.044 µM.

With `Cc1cc(O)c2c(c1)CN(C(=O)CC(C)(C)NCC(=O)N1CCC[C@H]1C#N)C2` [Example 75], the IC50 was determined as 0.014 µM.

For the compound `COc1cc(C)cc2c1CN(C(=O)CC(C)(C)NCC(=O)N1CCC[C@H]1C#N)C2` [Example 76], the half-inhibitory concentration (IC50) turned out to be 0.022 µM.

Take `COc1cccc2c1CN(C(=O)CC(C)(C)NCC(=O)N1CCC[C@H]1C#N)C2` [Example 78]: the IC50 stood at 0.015 µM.

On to `CC(C)(CCC(=O)N1Cc2ccccc2C1)NCC(=O)N1CCC[C@H]1C#N` [Example 82], for which half-maximal inhibition (IC50) was put at 0.017 µM.

`N#C[C@@H]1CCCN1C(=O)CNCCC(=O)N1Cc2ccccc2C1` [Example 89] came in with an IC50 of 0.025 µM.

On to `N#C[C@@H]1CCCN1C(=O)CNCCC(=O)N1CCc2ccccc21` [Example 91], for which the IC50 turned out to be 0.082 µM.

`N#C[C@@H]1CCCN1C(=O)CNCCC(=O)Nc1nc2ccccc2s1` [Example 93] had an IC50 of 0.062 µM.

`N#C[C@@H]1CCCN1C(=O)CNCCNC(=O)c1ccc2ncsc2c1` [Example 95]: the 50% inhibitory concentration (IC50) stood at 0.013 µM.

As for `Cc1nc2ccc(C(=O)NCCNCC(=O)N3CCC[C@H]3C#N)cc2s1` [Example 101], the midpoint of inhibition, the IC50, lay at 0.066 µM.

Compound `COc1cc2ncsc2cc1C(=O)NCCNCC(=O)N1CCC[C@H]1C#N` [Example 102] showed an IC50 of 0.09 µM.

In turn, `N#C[C@@H]1CCCN1C(=O)CNCCCCNC(=O)c1ccc2ncsc2c1` [Example 105] showed an IC50 of 0.031 µM.
